Laboratory results as given in ChEMBL document CHEMBL1152491, “Synthesis and evaluation of antibacterial activities of andrographolide analogues” (2009).
Active and inactive are the calls of the source. The rule behind the calls is not given here.

Experiments:
Pseudomonas aeruginosa [1] = experiment: Growth inhibition of Pseudomonas aeruginosa PAO1 assessed as survival rate at 3.75 ug/mL after 20 hrs; type: functional; conditions: PAO1, 20 h
Candida albicans = experiment: Antifungal activity against Candida albicans at 0.05 mg/disk after 25 hrs; type: functional, organism-based
[2] = system: Pseudomonas aeruginosa PAO1; experiment: Inhibition of Pseudomonas aeruginosa PAO1 quorum sensing assessed as inhibition of pycocyanin production at 1 mM after 18 hrs
Staphylococcus aureus [3] = experiment: Antibacterial activity against methicillin-resistant Staphylococcus aureus 5676 at 0.05 mg/disk after 25 hrs; type: functional
Bacillus subtilis = experiment: Antibacterial activity against Bacillus subtilis at 0.05 mg/disk after 25 hrs; type: functional
Staphylococcus aureus [4] = experiment: Antibacterial activity against methicillin-resistant Staphylococcus aureus 5677 at 0.05 mg/disk after 25 hrs; type: functional
[5] = system: Pseudomonas aeruginosa PAO1; experiment: Inhibition of Pseudomonas aeruginosa PAO1 quorum sensing assessed as suppression of protease production at 1 mM after 18 hrs by azocasein-based colorimetric method
Pseudomonas aeruginosa [6] = experiment: Inhibition of Pseudomonas aeruginosa PAO1 quorum sensing assessed as inhibition of pycocyanin production at 0.1 mM after 18 hrs; type: functional, organism-based
Staphylococcus aureus [7] = experiment: Antibacterial activity against Staphylococcus aureus at 0.05 mg/disk after 25 hrs; type: functional
[8] = system: Pseudomonas aeruginosa PAO1; experiment: Inhibition of Pseudomonas aeruginosa PAO1 quorum sensing assessed as suppression of protease production at 0.1 mM after 18 hrs by azocasein-based colorimetric method
Escherichia coli = experiment: Antibacterial activity against Escherichia coli at 0.05 mg/disk after 25 hrs; type: functional
Pseudomonas aeruginosa [9] = experiment: Antibacterial activity against Pseudomonas aeruginosa at 0.05 mg/disk after 25 hrs; type: functional
Pseudomonas aeruginosa [10] = experiment: Growth inhibition of Pseudomonas aeruginosa PAO1 assessed as survival rate at 0.017 ug/mL after 20 hrs; type: functional; conditions: PAO1, 20 h
Pseudomonas aeruginosa [11] = experiment: Inhibition of Pseudomonas aeruginosa PAO1 biofilm formation cultivated on respiratory tack suction tube at 1 mM after 3 days by scanning electron microscopy; type: functional, organism-based
Pseudomonas aeruginosa [12] = experiment: Inhibition of Pseudomonas aeruginosa PAO1 biofilm formation cultivated on respiratory tack suction tube at 1 mM after 7 days by scanning electron microscopy; type: functional, organism-based
Pseudomonas aeruginosa [13] = experiment: Growth inhibition of Pseudomonas aeruginosa PAO1 assessed as population density at 1 mM after 15 hrs by atomic force microscopy; type: functional, organism-based
Pseudomonas aeruginosa [14] = experiment: Growth inhibition of Pseudomonas aeruginosa PAO1 at 1 mM after 25 hrs; type: functional, organism-based
[15] = system: Pseudomonas aeruginosa PAO1; experiment: Inhibition of Pseudomonas aeruginosa PAO1 quorum sensing assessed as inhibition of pycocyanin production at 10 mM after 18 hrs
Pseudomonas aeruginosa [16] = experiment: Growth inhibition of Pseudomonas aeruginosa PAO1 at 10 mM after 25 hrs; type: functional, organism-based
[17] = system: Pseudomonas aeruginosa PAO1; experiment: Inhibition of Pseudomonas aeruginosa PAO1 quorum sensing assessed as suppression of protease production at 10 mM after 18 hrs by azocasein-based colorimetric method
Pseudomonas aeruginosa [18] = experiment: Growth inhibition of Pseudomonas aeruginosa PAO1 assessed as survival rate at 538 ug/mL after 20 hrs; type: functional; conditions: PAO1, 20 h

| Structure (SMILES) | Activity (Candida albicans) | Activity [2] | diameter of the inhibition zone (DIZ) (Staphylococcus aureus [3]) [mm] | diameter of the inhibition zone (DIZ) (Bacillus subtilis) [mm] | diameter of the inhibition zone (DIZ) (Staphylococcus aureus [4]) [mm] | Activity [5] | Activity (Pseudomonas aeruginosa [6]) | diameter of the inhibition zone (DIZ) (Staphylococcus aureus [7]) [mm] | Activity [8] | diameter of the inhibition zone (DIZ) (Escherichia coli) [mm] | diameter of the inhibition zone (DIZ) (Pseudomonas aeruginosa [9]) [mm] | Activity (Pseudomonas aeruginosa [11]) | Activity (Pseudomonas aeruginosa [12]) | Activity (Pseudomonas aeruginosa [13]) | Activity (Pseudomonas aeruginosa [14]) | further results |
| --- | --- | --- | --- | --- | --- | --- | --- | --- | --- | --- | --- | --- | --- | --- | --- | --- |
| CC[C@H]1OC(=O)[C@H](C)[C@@H](O[C@H]2C[C@@](C)(OC)[C@@H](O)[C@H](C)O2)[C@H](C)[C@@H](O[C@@H]2O[C@H](C)C[C@H](N(C)C)[C@H]2O)[C@](C)(O)C[C@@H](C)C(=O)[C@H](C)[C@@H](O)[C@]1(C)O [ERYTHROMYCIN] |  |  |  |  |  |  |  |  |  |  |  |  |  |  |  | survival at 3.75 µg/mL (Pseudomonas aeruginosa [1]): 93.5% |
| C=C1CC[C@@H]2[C@](C)(CO)[C@H](O)CC[C@@]2(C)[C@@H]1C/C=C1/C(=O)OC[C@H]1OC(=O)CNC(=O)OC(C)(C)C | inactive | Active | 8.4 | <4 | 7.6 | Active | Active | 10.2 | Active | <4 | <4 |  |  |  |  |  |
| O=C(O)c1cn(C2CC2)c2cc(N3CCNCC3)c(F)cc2c1=O [CIPROFLOXACIN] |  |  |  |  |  |  |  |  |  |  |  |  |  |  |  | survival at 0.017 µg/mL (Pseudomonas aeruginosa [10]): 85% |
| C=C1CC[C@@H]2[C@](C)(CO)[C@H](O)CC[C@@]2(C)[C@@H]1C/C=C1/C(=O)OC[C@H]1OC(=O)CN.Cl | inactive | Active | 8.7 | <4 | 5.2 | Active | Active | 9.3 | Active | <4 | <4 | inactive | inactive | Active | Active |  |
| C=C1CC[C@@H]2[C@](C)(CO)[C@H](O)CC[C@@]2(C)[C@@H]1CC(C1=CCOC1=O)S(=O)(=O)[O-].[Na+] (stereo not given in full) | inactive |  |  | <4 |  |  | inactive | <4 | Active | <4 | <4 |  |  |  |  | Activity [15]: Active; Activity (Pseudomonas aeruginosa [16]): inactive; Activity [17]: Active |
| C=C1CC[C@@H]2[C@](C)(CO)[C@H](O)CC[C@@]2(C)[C@@H]1C/C=C1/C(=O)OC[C@H]1O [ANDROGRAPHOLIDE] |  |  |  | <4 |  | Active |  | <4 | Active | <4 | <4 | inactive | inactive | inactive | Active |  |
| C=C1CC[C@@H]2[C@](C)(CO)[C@H](O)CC[C@@]2(C)[C@@H]1C/C=C1/C(=O)OC[C@H]1OC(=O)/C=C/c1ccc([N+](=O)[O-])cc1 | inactive | Active | 8.1 | <4 | 6.4 | Active | Active | 8.3 | Active | <4 | <4 |  |  |  |  |  |
| C=C1CC[C@@H]2[C@](C)(CO)[C@H](O)CC[C@@]2(C)[C@@H]1C/C=C1/C(=O)OC[C@H]1OC(=O)CCCCC1CCSS1 (stereo not given in full) | inactive | Active | 6.9 | <4 | 4.1 | Active | Active | 4.9 | Active | <4 | <4 | Active | Active | Active | Active | survival at 538 µg/mL (Pseudomonas aeruginosa [18]): 84% |
